Read-outs that look alike come from different tables or passages of the source.

The test system of the series is Anopheles stephensi. Nature of the series: Anopheles stephensi treated well plate contact test: knockdown and mortality. The series is classed as in vivo. Particulars: for mortality at 0.2 ppm / pest or weed control at 0.2 ppm / mortality at 2 ppm / pest or weed control at 2 ppm / mortality at 20 ppm / pest or weed control at 20 ppm / mortality at 200 ppm / pest or weed control at 200 ppm: Anopheles stephensi; for mortality at 0.2 ppm / pest or weed control at 0.2 ppm / mortality at 2 ppm / pest or weed control at 2 ppm / mortality at 20 ppm / pest or weed control at 20 ppm / mortality at 200 ppm / pest or weed control at 200 ppm / mortality % 24, without TFNA-AM / mortality % 48, without TFNA-AM / Knock Down, without TFNA-AM: without TFNA-AM; for pest or weed control at 0.2 ppm / pest or weed control at 2 ppm / pest or weed control at 20 ppm / pest or weed control at 200 ppm / Knock Down, with TFNA-AM / Knock Down, without TFNA-AM: knockdown after 1 hour; for pest or weed control at 0.2 ppm / pest or weed control at 2 ppm / pest or weed control at 20 ppm / pest or weed control at 200 ppm: read-out: Knock Down, without TFNA-AM. The method, boiled down: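 Well surfaces coated with ethanol solution of compound at a defined concentration, alone or with 2 ppm TFNA-AM, then dried. Five non-blood-fed 2–5-day-old adult females per well, fed 10% sucrose; knockdown scored at 1 hour, mortality at 24 and 48 hours, replicate means reported.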

Setting [1] is: test compound 0.2 ppm, after 24 hours, read-out: mortality % 24, without TFNA-AM.
Where [2] appears, read: test compound 0.2 ppm, after 48 hours, read-out: mortality % 48, without TFNA-AM.
[3] abbreviates: test compound 2 ppm, after 24 hours, read-out: mortality % 24, without TFNA-AM.
Setting [4] is: test compound 2 ppm, after 48 hours, read-out: mortality % 48, without TFNA-AM.
[5] abbreviates: test compound 20 ppm, after 24 hours, read-out: mortality % 24, without TFNA-AM.
Where [6] appears, read: test compound 20 ppm, after 48 hours, read-out: mortality % 48, without TFNA-AM.
[7] abbreviates: test compound 200 ppm, after 24 hours, read-out: mortality % 24, without TFNA-AM.
[8] abbreviates: test compound 200 ppm, after 48 hours, read-out: mortality % 48, without TFNA-AM.
[9] abbreviates: test compound 200 ppm, adult females.
Setting [10] is: test compound 0.2 ppm plus 2 ppm TFNA-AM, after 24 hours.
The mark [11] stands for this setting: test compound 0.2 ppm plus 2 ppm TFNA-AM, after 48 hours.
Setting [12] is: test compound 0.2 ppm plus 2 ppm TFNA-AM.
[13] abbreviates: test compound 2 ppm plus 2 ppm TFNA-AM, after 24 hours.
[14] abbreviates: test compound 2 ppm plus 2 ppm TFNA-AM.
The mark [15] stands for this setting: test compound 20 ppm plus 2 ppm TFNA-AM, after 24 hours.
The mark [16] stands for this setting: test compound 20 ppm plus 2 ppm TFNA-AM.
The mark [17] stands for this setting: test compound 200 ppm plus 2 ppm TFNA-AM, after 24 hours.
The mark [18] stands for this setting: test compound 200 ppm plus 2 ppm TFNA-AM, after 48 hours.
Where [19] appears, read: test compound 200 ppm plus 2 ppm TFNA-AM.
Setting [20] is: test compound 2 ppm plus 2 ppm TFNA-AM, after 48 hours.
[21] abbreviates: test compound 20 ppm plus 2 ppm TFNA-AM, after 48 hours.

For `CCc1nn(C)c(C(=O)NCc2ccc(C(C)(C)C)cc2)c1Cl` [Tebufenpyrad], the mortality – broadly, the percentage killed – at 0.2 ppm by setting is: under setting [1], 0%; under setting [2], 0%. For the same compound, the pest or weed control at 0.2 ppm (test compound 0.2 ppm) worked out at 0%. For the same compound, the mortality at 2 ppm under setting [3] came to 0% and the mortality at 2 ppm under setting [4] was found to be 0%. Besides, the pest or weed control at 2 ppm (test compound 2 ppm) worked out at 0%. Moreover, the mortality at 20 ppm under setting [5] stood at 13% and the mortality at 20 ppm under setting [6] turned out to be 20%. Further, the pest or weed control at 20 ppm (test compound 20 ppm) was determined as 0%. Also, the mortality at 200 ppm runs as follows: under setting [7], 73%; under setting [8], 67%. The pest or weed control at 200 ppm under setting [9] amounted to 0%. Besides, the “mortality % 24, with TFNA-AM” value runs as follows: under setting [10], 0%; under setting [13], 27%; under setting [15], 80%; under setting [17], 100%. Besides, the “mortality % 48, with TFNA-AM” value runs as follows: under setting [11], 0%; under setting [18], 100%. The “Knock Down, with TFNA-AM” value under setting [12] is 93%; the “Knock Down, with TFNA-AM” value under setting [14] is 93%; the “Knock Down, with TFNA-AM” value under setting [16] is 93%; the “Knock Down, with TFNA-AM” value under setting [19] is listed as 93%.

As to `OC(c1ccc(Cl)cc1)(c1ccc(Cl)cc1)C(Cl)(Cl)Cl` [Dicofol], the mortality at 0.2 ppm was 0% under setting [1] and 0% under setting [2]. In addition, the pest or weed control at 0.2 ppm (test compound 0.2 ppm) worked out at 0%. The mortality at 2 ppm came out at 0% under setting [3] and 0% under setting [4]. For the same compound, the pest or weed control at 2 ppm (test compound 2 ppm) was found to be 0%. The mortality at 20 ppm is, setting by setting: under setting [5], 0%; under setting [6], 0%. Moreover, the pest or weed control at 20 ppm (test compound 20 ppm) was 0%. The mortality at 200 ppm reads like this: under setting [7], 0%; under setting [8], 0%. Moreover, the pest or weed control at 200 ppm under setting [9] amounted to 0%. Besides, the “mortality % 24, with TFNA-AM” value is, setting by setting: under setting [10], 20%; under setting [13], 60%; under setting [15], 80%; under setting [17], 100%. Further, the “mortality % 48, with TFNA-AM” value under setting [11] came to 0%; the “mortality % 48, with TFNA-AM” value under setting [20] was found to be 20%; the “mortality % 48, with TFNA-AM” value under setting [21] amounted to 100%; the “mortality % 48, with TFNA-AM” value under setting [18] is 100%. Further, the “Knock Down, with TFNA-AM” value was 100% under setting [12], 100% under setting [14], 100% under setting [16] and 100% under setting [19].

Regarding `Cc1ccc(/N=C/N(C)/C=N/c2ccc(C)cc2C)c(C)c1` [Amitraz], the mortality at 0.2 ppm was found to be 0% under setting [1] and 0% under setting [2]. Under “test compound 0.2 ppm”, the pest or weed control at 0.2 ppm worked out at 0%. Moreover, the mortality at 2 ppm came to 0% under setting [3] and 0% under setting [4]. For the setting “test compound 2 ppm”, the pest or weed control at 2 ppm stood at 0%. For the same compound, the mortality at 20 ppm is, setting by setting: under setting [5], 0%; under setting [6], 0%. Further, under “test compound 20 ppm”, the pest or weed control at 20 ppm was 0%. The mortality at 200 ppm reads like this: under setting [7], 0%; under setting [8], 0%. The pest or weed control at 200 ppm under setting [9] worked out at 0%. Besides, the “mortality % 24, with TFNA-AM” value turned out to be 20% under setting [10], 20% under setting [13], 20% under setting [15] and 100% under setting [17]. The “mortality % 48, with TFNA-AM” value is, setting by setting: under setting [11], 0%; under setting [20], 0%; under setting [21], 40%; under setting [18], 100%. The “Knock Down, with TFNA-AM” value worked out at 100% under setting [12], 100% under setting [14], 100% under setting [16] and 100% under setting [19].

With `CC(C)c1cc(Oc2ccccc2)cc(C(C)C)c1NC(=S)NC(C)(C)C` [Diafenthiuron], the mortality at 0.2 ppm by setting is: under setting [1], 0%; under setting [2], 20%. The pest or weed control at 0.2 ppm (test compound 0.2 ppm) is 60%. Also, the mortality at 2 ppm by setting is: under setting [3], 0%; under setting [4], 20%. Besides, the pest or weed control at 2 ppm (test compound 2 ppm) worked out at 100%. In addition, the mortality at 20 ppm is, setting by setting: under setting [5], 0%; under setting [6], 0%. Further, the pest or weed control at 20 ppm (test compound 20 ppm) amounted to 100%. The mortality at 200 ppm is 100% under setting [7] and 100% under setting [8]. In addition, the pest or weed control at 200 ppm under setting [9] was determined as 100%. The “mortality % 24, with TFNA-AM” value is, setting by setting: under setting [10], 60%; under setting [13], 100%; under setting [15], 100%; under setting [17], 100%. Also, the “mortality % 48, with TFNA-AM” value reads like this: under setting [11], 0%; under setting [20], 60%; under setting [21], 80%; under setting [18], 100%. Besides, the “Knock Down, with TFNA-AM” value is, setting by setting: under setting [12], 100%; under setting [14], 100%; under setting [16], 100%; under setting [19], 100%.

As for Spinosad, the “mortality % 24, with TFNA-AM” value came to 80% under setting [10], 100% under setting [13], 100% under setting [15] and 100% under setting [17]. The “mortality % 48, with TFNA-AM” value runs as follows: under setting [11], 100%; under setting [20], 100%; under setting [21], 80%; under setting [18], 100%. The “Knock Down, with TFNA-AM” value under setting [12] turned out to be 100%; the “Knock Down, with TFNA-AM” value under setting [14] came to 100%; the “Knock Down, with TFNA-AM” value under setting [16] stood at 100%; the “Knock Down, with TFNA-AM” value under setting [19] stood at 100%. Also, the “mortality % 24, without TFNA-AM” value is, setting by setting: (test compound 0.2 ppm, after 24 hours) 0%; (test compound 2 ppm, after 24 hours) 0%; (test compound 20 ppm, after 24 hours) 0%; (test compound 200 ppm, after 24 hours) 40%. In addition, the “mortality % 48, without TFNA-AM” value runs as follows: (test compound 0.2 ppm, after 48 hours) 0%; (test compound 2 ppm, after 48 hours) 0%; (test compound 20 ppm, after 48 hours) 0%; (test compound 200 ppm, after 48 hours) 40%. The “Knock Down, without TFNA-AM” value by setting is: (test compound 0.2 ppm) 40%; (test compound 2 ppm) 40%; (test compound 20 ppm) 40%; under setting [9], 60%.

(Values after patent publication US20260206755A1, “COMPOUNDS AND COMPOSITIONS HAVING KNOCK-DOWN OR BLOOD FEED INHIBITION ACTIVITY AGAINST INSECT PESTS” (priority 2017, published 2026).)
